Measured values reported in ChEMBL document CHEMBL1155458, “Synthesis, inhibitory activity of cholinesterases, and neuroprotective profile of novel 1,8-naphthyridine derivatives” (J Med Chem, 2010).

Experiments:
SH-SY5Y [1] = assay: Neuroprotective activity in human SH-SY5Y cells assessed as protection against rotenone/oligomycin A-induced cell death at 1 uM after 24 hrs by LDH release assay; type: functional
Acetylcholinesterase [2] = target: T1, Acetylcholinesterase (Homo sapiens, UniProt P22303)
T1 sequence (P22303 whole entry): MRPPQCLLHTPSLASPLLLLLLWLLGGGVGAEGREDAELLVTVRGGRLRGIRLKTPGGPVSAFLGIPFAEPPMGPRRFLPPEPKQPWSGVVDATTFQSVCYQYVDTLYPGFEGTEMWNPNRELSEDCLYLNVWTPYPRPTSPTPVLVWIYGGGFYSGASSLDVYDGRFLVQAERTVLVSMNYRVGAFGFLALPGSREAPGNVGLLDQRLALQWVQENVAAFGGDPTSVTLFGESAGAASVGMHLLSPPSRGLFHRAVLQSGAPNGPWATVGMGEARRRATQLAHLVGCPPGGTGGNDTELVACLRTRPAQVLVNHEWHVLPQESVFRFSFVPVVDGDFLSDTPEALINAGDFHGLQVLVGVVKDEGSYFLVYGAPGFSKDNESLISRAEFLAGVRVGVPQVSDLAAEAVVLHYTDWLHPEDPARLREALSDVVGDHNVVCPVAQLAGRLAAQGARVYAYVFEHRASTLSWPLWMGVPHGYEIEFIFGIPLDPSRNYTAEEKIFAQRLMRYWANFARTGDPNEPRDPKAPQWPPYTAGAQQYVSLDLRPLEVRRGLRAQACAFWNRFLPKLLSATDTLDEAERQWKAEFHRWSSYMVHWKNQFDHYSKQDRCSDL
Description: Inhibition of AChE in human erythrocytes by Ellman's method

SH-SY5Y [3] = assay: Neuroprotective activity in human SH-SY5Y cells assessed as protection against okadaic acid-induced cell death at 1 uM after 24 hrs by MTT assay; type: functional
Cholinesterase = Cholinesterase (Equus caballus, UniProt P81908)
Cholinesterase, sequence (P81908 whole entry): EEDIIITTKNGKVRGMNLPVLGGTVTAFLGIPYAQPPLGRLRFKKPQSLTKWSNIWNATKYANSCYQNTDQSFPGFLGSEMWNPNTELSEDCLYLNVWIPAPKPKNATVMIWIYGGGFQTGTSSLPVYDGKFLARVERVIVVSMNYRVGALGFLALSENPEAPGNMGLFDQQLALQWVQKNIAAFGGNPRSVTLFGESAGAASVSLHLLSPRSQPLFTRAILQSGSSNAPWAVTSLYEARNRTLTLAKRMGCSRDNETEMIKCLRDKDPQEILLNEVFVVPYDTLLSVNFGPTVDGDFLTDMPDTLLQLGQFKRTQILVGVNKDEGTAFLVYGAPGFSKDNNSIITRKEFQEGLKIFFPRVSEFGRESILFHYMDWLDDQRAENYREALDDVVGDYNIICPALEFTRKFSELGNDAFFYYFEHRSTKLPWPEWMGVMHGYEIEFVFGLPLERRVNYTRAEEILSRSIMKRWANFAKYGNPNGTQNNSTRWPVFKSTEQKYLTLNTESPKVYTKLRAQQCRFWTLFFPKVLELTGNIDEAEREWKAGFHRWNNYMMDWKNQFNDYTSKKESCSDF
Description: Inhibition of equine serum BuChE by Ellman's method

SH-SY5Y [4] = assay: Cytotoxicity against human SH-SY5Y cells assessed as LDH release at 1 uM after 24 hrs by spectrophotometry (reference value: 17.7%); type: cell-based
Acetylcholinesterase [5] = target: T2, Acetylcholinesterase (Bos taurus, UniProt P23795); assay: biochemical
T2 sequence (P23795 whole entry): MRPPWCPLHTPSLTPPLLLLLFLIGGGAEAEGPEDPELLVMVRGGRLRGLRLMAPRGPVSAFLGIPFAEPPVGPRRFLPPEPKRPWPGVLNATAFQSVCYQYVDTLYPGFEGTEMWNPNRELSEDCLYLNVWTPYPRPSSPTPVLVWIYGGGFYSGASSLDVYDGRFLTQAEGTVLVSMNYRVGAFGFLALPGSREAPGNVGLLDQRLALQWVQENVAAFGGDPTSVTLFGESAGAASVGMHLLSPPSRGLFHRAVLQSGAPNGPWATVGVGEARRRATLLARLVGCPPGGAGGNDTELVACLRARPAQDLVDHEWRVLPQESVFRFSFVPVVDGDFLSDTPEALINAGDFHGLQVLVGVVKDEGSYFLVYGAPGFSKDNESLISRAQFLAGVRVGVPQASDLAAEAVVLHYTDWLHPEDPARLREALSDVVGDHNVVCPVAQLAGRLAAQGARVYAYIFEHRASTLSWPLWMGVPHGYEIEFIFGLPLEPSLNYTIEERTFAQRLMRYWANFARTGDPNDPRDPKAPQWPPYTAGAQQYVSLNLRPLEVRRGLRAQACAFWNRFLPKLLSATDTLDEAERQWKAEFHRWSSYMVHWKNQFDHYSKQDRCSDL
Description: Displacement of propidium iodide from AChE in bovine erythrocytes after 15 mins by fluorescence plate reader

Acetylcholinesterase [6] = target: Acetylcholinesterase (Electrophorus electricus, UniProt O42275)
Acetylcholinesterase (Electrophorus electricus, UniProt O42275), sequence (O42275 whole entry): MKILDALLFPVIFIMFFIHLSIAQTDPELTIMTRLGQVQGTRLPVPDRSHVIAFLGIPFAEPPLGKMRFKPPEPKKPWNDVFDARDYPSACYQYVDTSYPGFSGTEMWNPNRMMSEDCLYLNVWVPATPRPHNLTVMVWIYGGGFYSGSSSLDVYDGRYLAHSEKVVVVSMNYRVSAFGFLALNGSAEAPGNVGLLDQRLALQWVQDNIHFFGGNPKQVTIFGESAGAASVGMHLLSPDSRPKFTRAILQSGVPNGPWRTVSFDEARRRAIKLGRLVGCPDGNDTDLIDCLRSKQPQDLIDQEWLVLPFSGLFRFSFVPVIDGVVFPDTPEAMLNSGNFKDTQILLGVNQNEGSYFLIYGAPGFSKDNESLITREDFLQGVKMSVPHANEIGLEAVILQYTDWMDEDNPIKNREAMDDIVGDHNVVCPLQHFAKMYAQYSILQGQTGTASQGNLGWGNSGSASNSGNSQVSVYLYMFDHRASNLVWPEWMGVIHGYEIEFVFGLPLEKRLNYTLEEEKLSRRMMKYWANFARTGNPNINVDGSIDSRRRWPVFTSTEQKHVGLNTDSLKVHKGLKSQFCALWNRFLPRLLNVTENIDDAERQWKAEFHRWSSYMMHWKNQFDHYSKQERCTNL
Description: Inhibition of electric eel AChE by Ellman's method

[7] = target: T3, Acetylcholinesterase (Bos taurus) (UniProt P23795); assay: Displacement of propidium iodide from AChE in bovine erythrocytes at 10 uM after 15 mins by fluorescence plate reader; type: cell-based
T3 sequence (whole entry): T2 sequence (P23795 whole entry)

[8] = target: T3, Acetylcholinesterase (Bos taurus); details: 1 mM
Description: Displacement of propidium iodide from AChE in bovine erythrocytes at 1 mM after 15 mins by fluorescence plate reader

Rattus norvegicus [9] = species: Rattus norvegicus; assay: Prevention of okadaic acid-induced inhibition of PP2A in rat brain cortex assessed as increase in inorganic phosphorus release at 10 uM after 1 hr by malachite green assay relative to control; type: tissue-based; parameters: scale not given: the % may be the effect or the level left
Rattus norvegicus [10] = species: Rattus norvegicus; assay: Prevention of okadaic acid-induced inhibition of PP2A in rat brain cortex assessed as increase in inorganic phosphorus release after 1 hr by malachite green assay relative to control; type: tissue-based
SH-SY5Y [11] = assay: Neuroprotective activity in human SH-SY5Y cells assessed as protection against amyloid beta(1-42)-induced cell death after 24 hrs by MTT assay; type: functional, cell-based
Acetylcholinesterase [12] = target: T1, Acetylcholinesterase; assay: Inhibition of AChE (unknown orign) by Lineweaver-Burke plot
SH-SY5Y [13] = assay: Neuroprotective activity in human SH-SY5Y cells assessed as protection against amyloid beta(1-42)-induced cell death at 10 uM after 24 hrs by MTT assay; type: functional
Hippocampus [14] = assay: Neuroprotective activity in isolated rat brain hippocampal slices assessed as protection against oxygen and glucose deprivation-induced cell death after 24 hrs by MTT assay; type: functional, tissue-based
Hippocampus [15] = assay: Neuroprotective activity in isolated rat brain hippocampal slices assessed as protection against oxygen and glucose deprivation-induced cell death at 30 uM after 24 hrs by MTT assay; type: functional
SH-SY5Y [16] = assay: Neuroprotective activity in human SH-SY5Y cells assessed as protection against amyloid beta(1-42)-induced cell death at 1 uM after 24 hrs by MTT assay; type: functional
Rattus norvegicus [17] = species: Rattus norvegicus; assay: Prevention of okadaic acid-induced inhibition of PP2A in rat brain cortex assessed as increase in inorganic phosphorus release at 1 uM after 1 hr by malachite green assay relative to control; type: tissue-based; parameters: scale not given: the % may be the effect or the level left

Row | SMILES | Activity (SH-SY5Y [1]) [%] | IC50 (Acetylcholinesterase [2]) [nM] | Activity (SH-SY5Y [3]) [%] | IC50 (Cholinesterase) [nM] | Activity (SH-SY5Y [4]) [%] | IC50 (Acetylcholinesterase [5]) [nM] | IC50 (Acetylcholinesterase [6]) [nM] | inhibition [7] [%] | other results
1 | COC(=O)c1cc2c(N)c3c(nc2nc1C)CCCCC3 | 36.1 | 2000 | 38.7 | 490 | 20.4 | 360 | 360 | 11 | –
2 | CC(=O)N[C@@H](CS)C(=O)O [ACETYLCYSTEINE] | 33.4 | – | – | – | – | – | – | – | –
3 | COC(=O)c1cc2c(N)c3c(nc2nc1C)CCCC3 | 25.8 | 1000 | 44.8 | 3400 | 11.6 | 93 | 93 | 16 | –
4 | COc1ccc2[nH]cc(CCNC(C)=O)c2c1 [MELATONIN] | 33.8 | – | – | – | – | – | – | – | –
5 | C=CC[N+](C)(C)c1ccc(CCC(=O)CCc2ccc([N+](C)(C)CC=C)cc2)cc1 | – | – | – | – | – | – | – | – | inhibition [8]: 29%
6 | CCOC(=O)c1cc2c(N)c3c(nc2nc1C)CCCC3 | 48.4 | – | 75 | – | 20.9 | 60 | – | 10 | Activity (Rattus norvegicus [9]): 91%; Activity (Rattus norvegicus [10]): Dose-dependent effect; Activity (SH-SY5Y [11]): Dose-dependent effect; Ki (Acetylcholinesterase [12]): 24 nM; Activity (SH-SY5Y [13]): 10%; Activity (Hippocampus [14]): Dose-dependent effect; EC50 (Hippocampus [14]): 6000 nM; Activity (Hippocampus [15]): 65.5%; Activity (SH-SY5Y [16]): 54%; Activity (Rattus norvegicus [17]): 77%
7 | COc1ccc2c3c1O[C@H]1C[C@@H](O)C=C[C@@]31CCN(C)C2 [GALANTAMINE] | – | – | 0 | – | – | – | – | – | –
8 | CCOC(=O)c1cc2c(N)c3c(nc2nc1C)CCCCC3 | 31.1 | 2000 | 28.9 | 2100 | 19.9 | 310 | 310 | 10 | –
9 | COC(=O)c1cc2c(N)c3c(nc2nc1C)CCC3 | 37.5 | 1900 | 36.5 | 5000 | 22.1 | 120 | 120 | 10 | –
10 | CCOC(=O)c1cc2c(N)c3c(nc2nc1C)CCCCCC3 | 32.6 | 1800 | 33.8 | 5300 | 12.7 | 400 | 400 | 10 | –
11 | C=C1[C@@H](O)[C@@H]2O[C@]3(CC[C@H](/C=C/[C@@H](C)[C@@H]4CC(C)=C[C@@]5(O[C@H](C[C@@](C)(O)C(=O)O)CC[C@H]5O)O4)O3)CC[C@H]2O[C@@H]1[C@@H](O)C[C@H](C)[C@H]1O[C@@]2(CCCCO2)CC[C@H]1C [OKADAIC ACID] | – | – | 80.5 | – | – | – | – | – | –
12 | CCOC(=O)c1cc2c(N)c3c(nc2nc1C)CCC3 | 28.7 | 2100 | 39.5 | 39000 | 12.3 | 350 | 350 | 20 | –
13 | COC(=O)c1cc2c(N)c3c(nc2nc1C)CCCCCC3 | 42.3 | 1800 | 26.2 | 4070 | 21.6 | 250 | 250 | 16 | –
14 | CCOC(=O)c1c(C)nc2nc3c(c(N)c2c1-c1ccccc1)CCCC3 | 26.8 | – | 22.1 | – | – | – | 800 | – | –
